This is an account of results in patent publication US20230000892A1, “Solution, Lotion, Gel, and Cream for Use to Prevent Razor Bumps” (priority 2021, published 2023).

The test has as its system razor bumps. Briefly: proof of concept use of acne gels, creams, suspension and lotions immediately after shaving to prevent razor bumps. In kind it is in vivo, human. The following applies: concentration down to at least 0.75% within the gel.

Take clindamycin phosphate: the “adequacy of lower concentration for preventing razor bumps” value is reported as “sufficiently adequate”.
